{
  "source": "ChEMBL document CHEMBL1221260",
  "about": "“Discovery of cannabinoid-1 receptor antagonists by virtual screening” (Bioorg Med Chem Lett, 2010)",
  "key": {"Cannabinoid receptor 1": {"biological_target": "Cannabinoid receptor 1 (Homo sapiens, UniProt P21554)", "sequence (P21554 whole entry)": "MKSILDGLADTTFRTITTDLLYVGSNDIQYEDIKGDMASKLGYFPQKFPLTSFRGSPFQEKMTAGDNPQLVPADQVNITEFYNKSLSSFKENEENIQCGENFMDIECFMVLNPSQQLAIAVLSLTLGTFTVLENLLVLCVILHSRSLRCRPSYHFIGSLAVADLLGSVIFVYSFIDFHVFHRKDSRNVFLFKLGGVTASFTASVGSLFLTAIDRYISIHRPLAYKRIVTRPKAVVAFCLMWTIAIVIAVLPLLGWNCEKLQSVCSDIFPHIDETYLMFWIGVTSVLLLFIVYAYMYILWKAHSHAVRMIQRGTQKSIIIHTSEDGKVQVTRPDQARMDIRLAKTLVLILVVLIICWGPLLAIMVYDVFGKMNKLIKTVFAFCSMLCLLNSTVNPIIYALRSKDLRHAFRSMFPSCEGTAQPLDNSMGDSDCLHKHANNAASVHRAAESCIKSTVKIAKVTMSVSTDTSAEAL", "experiment": "Inhibition of human CB1 receptor expressed in CHOK1 cells by luciferase reporter gene assay", "type": "cell-based", "design": "concentration or dose not given beside the values", "conditions": "for inhibition: CHO-K1, concentration not given here"}, "[1]": {"experiment": "Stability in rat plasma for 30 mins", "type": "ADME, cell-free", "conditions": "read-out: Stability"}, "Homo sapiens [2]": {"organism": "Homo sapiens", "experiment": "Plasma protein binding in human", "conditions": "read-out: PPB (converted)"}, "Liver microsomes [3]": {"test_system": "Liver microsomes", "experiment": "Metabolic stability in human liver microsomes", "type": "ADME, Microsome"}, "[4]": {"experiment": "Plasma protein binding in rat", "type": "ADME, cell-free", "conditions": "read-out: PPB (converted)"}, "Homo sapiens [5]": {"organism": "Homo sapiens", "experiment": "Stability in human plasma for 30 mins"}, "Liver microsomes [6]": {"test_system": "Liver microsomes", "experiment": "Metabolic stability in rat liver microsomes", "type": "ADME, Microsome"}},
  "data": [
    {"smiles": "Cc1ccc(-n2nc3c(c2NC(=O)c2ccco2)CS(=O)(=O)C3)c(C)c1", "values": [
      {"measurement": "inhibition", "setting": "Cannabinoid receptor 1", "result": 90, "unit": "%"}
    ]},
    {"smiles": "COC(=O)c1ccc([C@@H]2CC(=O)N3C(=C2C#N)SC[C@]3(O)c2ccc(C)cc2)cc1", "values": [
      {"measurement": "inhibition", "setting": "Cannabinoid receptor 1", "result": 83, "unit": "%"}
    ]},
    {"smiles": "O=C1N=C(Nc2cccc(C(F)(F)F)c2)S/C1=C\\c1cccnc1", "values": [
      {"measurement": "IC50", "setting": "Cannabinoid receptor 1", "result": 125, "unit": "nM"},
      {"measurement": "remaining at 0.5 h", "setting": "[1]", "result": "> 99", "unit": "%"},
      {"measurement": "fraction unbound", "setting": "Homo sapiens [2]", "result": 0.058},
      {"measurement": "Stability", "setting": "Liver microsomes [3]", "result": 87, "unit": "%"},
      {"measurement": "fraction unbound", "setting": "[4]", "result": 0.034},
      {"measurement": "remaining at 0.5 h", "setting": "Homo sapiens [5]", "result": "> 99", "unit": "%"},
      {"measurement": "Stability", "setting": "Liver microsomes [6]", "result": 96.1, "unit": "%"}
    ]},
    {"smiles": "CCOC(=O)c1c(NC(=O)Cc2ccccc2)sc2c1CCN(C(=O)OCC)C2", "values": [
      {"measurement": "inhibition", "setting": "Cannabinoid receptor 1", "result": 94, "unit": "%"}
    ]},
    {"smiles": "COC(=O)c1cc(S(=O)(=O)N2CCn3c2nc2ccccc23)c[nH]1", "values": [
      {"measurement": "inhibition", "setting": "Cannabinoid receptor 1", "result": 102, "unit": "%"}
    ]},
    {"smiles": "C=C(C)Cn1c(SCC(=O)OC)nc2sc3c(c2c1=O)CC(C)(C)OC3", "values": [
      {"measurement": "IC50", "setting": "Cannabinoid receptor 1", "result": 290, "unit": "nM"}
    ]},
    {"smiles": "O=C(NC[C@@H]1CCCO1)c1nc(-c2ccc(Cl)cc2)n2c1CCCCC2", "values": [
      {"measurement": "inhibition", "setting": "Cannabinoid receptor 1", "result": 63, "unit": "%"}
    ]}
  ]
}
